In assay [1] the target is T7 RNA polymerase (Escherichia phage T7, UniProt P00573). The experiment in a line: In vitro transcription yields of modified mRNA. Particulars: for EPO In Vitro Transcription yield: EPO mRNA made with the modified NTP(s); for GCSF In Vitro Transcription yield: GCSF mRNA made with the modified NTP(s); for Luc In Vitro Transcription yield: Luciferase mRNA made with the modified NTP(s). It counts as biochemical.

Assay [2] relates to Rabbit Reticulocyte Lysate. The experiment in a line: In vitro translation screen, firefly Luciferase modRNA (luciferase assay, relative light units). It counts as biochemical. To be noted: Table 20; 250 ng modRNA, 45 min, 30° C. How it is done: (§1) The in vitro translation assay was done with the Rabbit Reticulocyte Lysate (nuclease-treated) kit (Promega, Madison, Wis.; Cat. #L4960) according to the manufacturer's instructions. The reaction buffer was a mixture of equal amounts of the amino acid stock solutions devoid of Leucine or Methionine provided in the kit.
(§2) The modRNAs of firefly Luciferase, human GCSF and human EPO, harboring chemical modifications on either the bases or the ribose units, were diluted in sterile nuclease-free water to a final concentration of 250 ng in 2.5 ul (Stock 100 ng/μl). The modRNA (250 ng) was added to the mixture of freshly prepared Rabbit Reticulocyte Lysate and reaction buffer.
After 45 min incubation, the reaction was stopped by placing the plate on ice. Aliquots of the in vitro translation reaction containing luciferase modRNA were transferred to white opaque polystyrene 96-well plates (Corning, Manassas, Va.; Cat. # CLS3912) and combined with 100 ul complete luciferase assay solution (Promega, Madison, Wis.). The volumes of the in vitro translation reactions were adjusted or diluted until no more than 2 million relative light units per well were detected for the strongest signal producing samples. […] The plate reader was a BioTek Synergy H1 (BioTek, Winooski, Vt.).

For assay [3], the system named is Rabbit Reticulocyte Lysate. The experiment in a line: In vitro translation screen, human GCSF modRNA (GCSF ELISA). It counts as biochemical. Particulars: Table 20; 250 ng modRNA, 45 min, 30° C. How it is done: as §1, §2
(§3) Aliquots of the in vitro translation reaction containing human GCSF modRNA or human EPO mRNA were transferred and analyzed with a human GCSF-specific or EPO ELISA kit (both from R&D Systems, Minneapolis, Minn.; Cat. #s SCS50, DEP00 respectively) according to the manufacturer instructions. All samples were diluted until the determined values were within the linear range of the human GCSF or EPO ELISA standard curve.
(In general: ELISA stands for enzyme-linked immunosorbent assay.)

Assay [4] relates to Rabbit Reticulocyte Lysate. Nature of the assay: In vitro translation screen, human EPO modRNA (EPO ELISA). The format is biochemical. To be noted: Table 20; 250 ng modRNA, 45 min, 30° C. On the procedure: as §1, §2, §3
Assay [5] concerns HeLa cells. Nature of the assay: Transfection in HeLa cells, Luciferase modRNA (luciferase assay, relative light units). It counts as cell-based, human. Particulars: Table 22, 83 ng modRNA, Lipofectamine 2000, 18 h to 22 h. On the procedure: (§4) The day before transfection, 20.000 HeLa cells (ATCC no. CCL-2; Manassas, Va.) were harvested by treatment with Trypsin-EDTA solution (LifeTechnologies, Grand Island, N.Y.) and seeded in a total volume of 100 ul EMEM medium (supplemented with 10% FCS and 1× Glutamax) per well in a 96-well cell culture plate (Corning, Manassas, Va.). The cells were grown at 37° C. in 5% CO2 atmosphere overnight. Next day, 83 ng of Luciferase modRNA or 250 ng of human GCSF modRNA, harboring chemical modifications on the bases or the ribose units, were diluted in 10 ul final volume of OPTI-MEM (LifeTechnologies, Grand Island, N.Y.). Lipofectamine 2000 (LifeTechnologies, Grand Island, N.Y.) was used as transfection reagent and 0.2 μl were diluted in 10 ul final volume of OPTI-MEM. After 5 min incubation at room temperature, both solutions were combined and incubated additional 15 min at room temperature. Then the 20 μl were added to the 100 ul cell culture medium containing the HeLa cells. The plates were then incubated as described before.
After 18 h to 22 h incubation, cells expressing luciferase were lysed with 100 μl Passive Lysis Buffer (Promega, Madison, Wis.) according to manufacturer instructions. Aliquots of the lysates were transferred to white opaque polystyrene 96-well plates (Corning, Manassas, Va.) and combined with 100 ul complete luciferase assay solution (Promega, Madison, Wis.). The lysate volumes were adjusted or diluted until no more than 2 mio relative light units per well were detected for the strongest signal producing samples. […] The plate reader was a BioTek Synergy H1 (BioTek, Winooski, Vt.).

Assay [6] deals with HeLa cells. Nature of the assay: Transfection in HeLa cells, human GCSF modRNA (GCSF ELISA of supernatant). The format is cell-based. Particulars: Table 22, 250 ng modRNA, 18 h to 22 h. On the procedure: as §4
(§5) After 18 h to 22 h incubation, cell culture supernatants of cells expressing human GCSF or human EPO were collected and centrifuged at 10.000 rcf for 2 min. The cleared supernatants were transferred and analyzed with a human GCSF-specific or EPO ELISA kit (both from R&D Systems, Minneapolis, Minn.; Cat. #s SCS50, DEP00, respectively) according to the manufacturer instructions. All samples were diluted until the determined values were within the linear range of the human GCSF or EPO ELISA standard curve.

The subject of assay [7] is HeLa cells. Nature of the assay: Transfection in HeLa cells, human EPO modRNA (EPO ELISA of supernatant). It counts as cell-based. To be noted: Table 22, 18 h to 22 h. How it is done:
as §4, §5

Assay [8] concerns human PBMC. The experiment in a line: PBMC cytokine assay, interferon-alpha production (IFN-alpha multi-subtype ELISA). The format is cell-based. On the procedure: 50 mL of human blood from three donors was received from Research Blood Components (Brighton, Mass.) in sodium heparin tubes. […] The tubes were centrifuged at 2000 rpm for 30 minutes with low acceleration and braking (Thermo, Waltham, Mass., 75004506). The tubes were removed and the buffy coat PBMC layers were gently transferred to a fresh 50 mL conical and washed with DPBS. The tubes were centrifuged at 1450 rpm for 10 minutes. The supernatant was aspirated and the PBMC pellets were resuspended and washed in 50 mL of DPBS. The tubes were centrifuged at 1450 rpm for 10 minutes. […] The cell suspensions were adjusted to a concentration of 3.0×10^6 cells/mL live cells. […] Within 30 minutes, transfection mixtures were added to each well at a volume of 50 μL per well. […] The transfection mixtures were then transferred to each of the human PBMC plates at 50 μL per well (6 wells per mRNA sample). The plates were then incubated at 37° C. […] In order to harvest the supernatant, plates were centrifuged at 1450 rpm for 5 min in a swinging plate rotor. The supernatant of 6 wells transfected with the same mRNA was carefully harvested and pooled in a single well of a fresh 96-well plate. Supernatants were either frozen or used fresh until ELISA analysis was done. The ability of unmodified and modified mRNA to trigger innate immune recognition as measured by interferon-alpha production.

Chain of T7 RNA polymerase (P00573 whole entry): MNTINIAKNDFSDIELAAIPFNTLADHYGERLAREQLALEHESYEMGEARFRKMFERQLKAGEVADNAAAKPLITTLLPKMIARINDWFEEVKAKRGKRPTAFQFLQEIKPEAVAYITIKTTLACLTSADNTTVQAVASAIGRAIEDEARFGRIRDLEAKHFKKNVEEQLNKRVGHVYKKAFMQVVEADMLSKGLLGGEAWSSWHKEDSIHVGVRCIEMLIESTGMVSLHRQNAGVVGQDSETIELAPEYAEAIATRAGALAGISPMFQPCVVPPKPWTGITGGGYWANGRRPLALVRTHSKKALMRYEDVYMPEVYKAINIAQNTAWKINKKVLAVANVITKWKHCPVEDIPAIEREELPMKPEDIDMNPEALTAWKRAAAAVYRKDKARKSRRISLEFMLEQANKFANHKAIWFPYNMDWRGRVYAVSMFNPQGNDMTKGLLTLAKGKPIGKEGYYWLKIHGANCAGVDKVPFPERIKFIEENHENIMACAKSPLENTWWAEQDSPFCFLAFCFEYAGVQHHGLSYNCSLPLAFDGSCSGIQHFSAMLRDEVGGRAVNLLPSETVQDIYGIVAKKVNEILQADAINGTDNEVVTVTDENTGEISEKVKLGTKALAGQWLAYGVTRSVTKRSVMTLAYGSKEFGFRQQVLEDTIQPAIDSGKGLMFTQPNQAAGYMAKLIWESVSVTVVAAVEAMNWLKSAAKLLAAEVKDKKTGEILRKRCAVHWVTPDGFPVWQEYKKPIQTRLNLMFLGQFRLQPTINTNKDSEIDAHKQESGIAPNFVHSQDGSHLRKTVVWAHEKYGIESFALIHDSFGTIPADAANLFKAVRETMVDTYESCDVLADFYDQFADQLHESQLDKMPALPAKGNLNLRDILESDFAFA

`Nc1nc(=O)n([C@@H]2O[C@H](COP(=O)(O)OP(=O)(O)OP(=O)(O)O)C(O)C2O)cc1CO` (stereo in doubt) [00901014005 (350), 5-Hydroxymethyl-CTP]: in assay [1], the “EPO In Vitro Transcription yield” value was 0.7778 mg. For the same compound, the “GCSF In Vitro Transcription yield” value in assay [1] came out at 0.6391 mg. For the same compound, in assay [1], the “Luc In Vitro Transcription yield” value turned out to be 0.4073 mg. For the same compound, the “Luc Expression (RLUs)” value in assay [2] is listed as 154000 RLUs; in assay [5] it was 22160 RLUs. The “GCSF Expression” value in assay [3] turned out to be 26600 pg/mL; in assay [6] it was 1151000 pg/mL. Also, the “Epo Expression” value in assay [4] amounted to 9425 pg/mL; in assay [7], 440300 pg/mL. In addition, the “interferon-alpha concentration in PBMC supernatant” value (from here on “interferon-alpha concentration”) in assay [8] (Luc mRNA, 1st value in cell) amounted to 7130 pg/mL; in assay [8] (Luc mRNA, 2nd value in cell), 3680 pg/mL; in assay [8] (Luc mRNA, 3rd value in cell), 8990 pg/mL; in assay [8] (hEPO mRNA, 1st value in cell) it was 4960 pg/mL; in assay [8] (hEPO mRNA, 2nd value in cell), 3100 pg/mL; in assay [8] (hEPO mRNA, 3rd value in cell), 2412.5 pg/mL. Further, the “interferon-alpha concentration” value is 6575 pg/mL in assay [8] (hGCSF mRNA, 1st value in cell); 5800 pg/mL in assay [8] (hGCSF mRNA, 2nd value in cell); 8180 pg/mL in assay [8] (hGCSF mRNA, 3rd value in cell).
As for `O=c1[nH]c(=S)[nH]cc1[C@@H]1O[C@H](COP(=O)(O)OP(=O)(O)OP(=O)(O)O)C(O)C1O` (stereo in doubt) [00901015006 (193), 2-Thio-pseudo-UTP], the “EPO In Vitro Transcription yield” value in assay [1] stood at 1.081 mg. Further, in assay [1], the “GCSF In Vitro Transcription yield” value came to 0.5207 mg. For the same compound, in assay [1], the “Luc In Vitro Transcription yield” value is 0.6123 mg. The “Luc Expression (RLUs)” value in assay [2] is 2198 RLUs; in assay [5], 1999 RLUs. Also, the “GCSF Expression” value worked out at 5988 pg/mL in assay [3] and 239300 pg/mL in assay [6]. Besides, the “Epo Expression” value in assay [4] was found to be 12310 pg/mL; in assay [7], 380600 pg/mL. Moreover, the “interferon-alpha concentration” value in assay [8] (Luc mRNA, 1st value in cell) is 530 pg/mL; in assay [8] (Luc mRNA, 2nd value in cell), 1180 pg/mL; in assay [8] (Luc mRNA, 3rd value in cell), 1400 pg/mL; in assay [8] (hEPO mRNA, 1st value in cell), -210 pg/mL; in assay [8] (hEPO mRNA, 2nd value in cell), 675 pg/mL; in assay [8] (hEPO mRNA, 3rd value in cell), 362.5 pg/mL. In addition, the “interferon-alpha concentration” value came out at 358.33 pg/mL in assay [8] (hGCSF mRNA, 1st value in cell); 166.66 pg/mL in assay [8] (hGCSF mRNA, 2nd value in cell); 490 pg/mL in assay [8] (hGCSF mRNA, 3rd value in cell).
As for `O=c1[nH]cc([C@@H]2O[C@H](COP(O)(=S)OP(=O)(O)OP(=O)(O)O)C(O)C2O)c(=O)[nH]1` (stereo in doubt) [00902015001 (194), PseudoU-alpha-thio-TP], the “EPO In Vitro Transcription yield” value in assay [1] was found to be 0.8632 mg. Further, in assay [1], the “GCSF In Vitro Transcription yield” value amounted to 0.5522 mg. Moreover, in assay [1], the “Luc In Vitro Transcription yield” value is given as 0.6479 mg. Further, the “Luc Expression (RLUs)” value in assay [2] is listed as 5221 RLUs; in assay [5] it was 2015 RLUs. For the same compound, the figures for the “GCSF Expression” value in assay [3] and in assay [6] were 7763 pg/mL and 320000 pg/mL, respectively. Also, the entries for the “Epo Expression” value in assay [4] and in assay [7] were 2669 pg/mL and 302800 pg/mL, respectively. Moreover, the “Luc (3 Donor samples)” value in assay [8] (Luc mRNA, 1st value in cell) was 20 pg/mL; in assay [8] (Luc mRNA, 2nd value in cell), 170 pg/mL; in assay [8] (Luc mRNA, 3rd value in cell), -90 pg/mL. Further, the “hEPO (3 Donor samples)” value in assay [8] (hEPO mRNA, 1st value in cell) is -190 pg/mL; in assay [8] (hEPO mRNA, 2nd value in cell), 75 pg/mL; in assay [8] (hEPO mRNA, 3rd value in cell), 400 pg/mL. In addition, the “hGCSF (3 Donor samples)” value in assay [8] (hGCSF mRNA, 1st value in cell) came out at 50 pg/mL; in assay [8] (hGCSF mRNA, 2nd value in cell) it was 508.33 pg/mL; in assay [8] (hGCSF mRNA, 3rd value in cell) it was 640 pg/mL.
As for `O=c1ccn([C@@H]2O[C@H](COP(O)(=S)OP(=O)(O)OP(=O)(O)O)C(O)C2O)c(=O)[nH]1` (stereo in doubt) [Compound 00902013001, Alpha-thio-UTP], the “EPO In Vitro Transcription yield” value in assay [1] is 0.2666 mg. In assay [1], the “GCSF In Vitro Transcription yield” value is listed as 0.2605 mg. In addition, in assay [1], the “Luc In Vitro Transcription yield” value is recorded as 0.3510 mg. Also, the “Luc Expression (RLUs)” value amounted to 51180 RLUs in assay [2] and 937.0 RLUs in assay [5]. For the same compound, the “GCSF Expression” value came out at 20530 pg/mL in assay [3] and 73570 pg/mL in assay [6]. Further, the figures for the “Epo Expression” value in assay [4] and in assay [7] were 14260 pg/mL and 190700 pg/mL, respectively.
Regarding `Nc1ccn([C@@H]2O[C@H](COP(O)(=S)OP(=O)(O)OP(=O)(O)O)C(O)C2O)c(=O)n1` (stereo in doubt) [Compound 00902014001, Alpha-thio-CTP], the “EPO In Vitro Transcription yield” value in assay [1] amounted to 0.2669 mg. For the same compound, in assay [1], the “GCSF In Vitro Transcription yield” value was determined as 0.2650 mg. Moreover, the “Luc In Vitro Transcription yield” value in assay [1] came to 0.3352 mg. Besides, the results for the “Luc Expression (RLUs)” value in assay [2] and in assay [5] were 142900 RLUs and 1845 RLUs, respectively. For the same compound, the entries for the “GCSF Expression” value in assay [3] and in assay [6] were 26930 pg/mL and 285000.00 pg/mL, respectively. Also, the “Epo Expression” value in assay [4] was found to be 17000 pg/mL; in assay [7] it was 195400 pg/mL.

The values above are taken from patent US20160304552A1, “MODIFIED NUCLEIC ACID MOLECULES AND USES THEREOF” (MODERNA THERAPEUTICS, INC., priority 2013, published 2016).
